IC50 data for ten compounds are collected here from BindingDB's records for doi:10.1021/jm00040a004 (Glaxo Group Research, 1994).

The nature of the test: In vitro kappa-opioid receptor agonist activity in isolated rabbit vas deferens assay.
On to `Cc1cc2c(o1)CCN(C(=O)Cc1ccc(Cl)c(Cl)c1)C2CN1CCC(O)C1` (stereo not given) [2-(3,4-Dichloro-phenyl)-1-[4-(3-hydroxy-pyrrolidin-1-ylmethyl)-2-methyl-6,7-dihydro-4H-furo[3,2-c]pyridin-5-yl]-ethanone], for which the IC50 was determined as 0.39 nM.

Regarding `O=C(Cc1ccc(Cl)c(Cl)c1)N1CCc2c(O)cccc2C1CN1CCC(O)C1` (stereo not given) [2-(3,4-Dichloro-phenyl)-1-[5-hydroxy-1-(3-hydroxy-pyrrolidin-1-ylmethyl)-3,4-dihydro-1H-isoquinolin-2-yl]-ethanone], the half-inhibitory concentration (IC50) is 3.8 nM.

With `O=C(Cc1ccc(Cl)c(Cl)c1)N1CCc2occc2C1CN1CC=CCC1` (stereo not given) [2-(3,4-Dichloro-phenyl)-1-[4-(3,6-dihydro-2H-pyridin-1-ylmethyl)-6,7-dihydro-4H-furo[3,2-c]pyridin-5-yl]-ethanone], the IC50 stood at 1.4 nM.

As for `O=C(Cc1ccc(Cl)c(Cl)c1)N1CCc2occc2C1CN1CCC(O)C1` (stereo not given) [2-(3,4-Dichloro-phenyl)-1-[4-(3-hydroxy-pyrrolidin-1-ylmethyl)-6,7-dihydro-4H-furo[3,2-c]pyridin-5-yl]-ethanone], the IC50 amounted to 2.7 nM.

`CN(C)CC1c2ccoc2CCN1C(=O)Cc1ccc(Cl)c(Cl)c1` (stereo not given) [2-(3,4-Dichloro-phenyl)-1-(4-dimethylaminomethyl-6,7-dihydro-4H-furo[3,2-c]pyridin-5-yl)-ethanone] had an IC50 of 22 nM.

The compound `O=C(Cc1ccc(Cl)c(Cl)c1)N1CCc2occc2[C@@H]1CN1CC[C@H](O)C1` [2-(3,4-Dichloro-phenyl)-1-[(R)-4-((S)-3-hydroxy-pyrrolidin-1-ylmethyl)-6,7-dihydro-4H-furo[3,2-c]pyridin-5-yl]-ethanone] returned an IC50 of 1.1 nM.

Take `O=C(Cc1ccc(Cl)c(Cl)c1)N1CCc2occc2C1CN1CCCC1` (stereo not given) [2-(3,4-Dichloro-phenyl)-1-(4-pyrrolidin-1-ylmethyl-6,7-dihydro-4H-furo[3,2-c]pyridin-5-yl)-ethanone]: the IC50 worked out at 15 nM.

On to `O=C(Cc1ccc(Cl)c(Cl)c1)N1CCc2occc2[C@H]1CN1CC[C@@H](O)C1` [(RS)-2-(3,4-Dichloro-phenyl)-1-[4-(3-hydroxy-pyrrolidin-1-ylmethyl)-6,7-dihydro-4H-furo[3,2-c]pyridin-5-yl]-ethanone(GR 91272)], for which the IC50 was 3.4 nM.

Take `O=C(Cc1ccc(Cl)c(Cl)c1)N1CCc2c(O)cccc2C1CN1CCCC1` (stereo not given): the IC50 amounted to 0.11 nM.

In turn, `O=C1CCN(CC2c3ccoc3CCN2C(=O)Cc2ccc(Cl)c(Cl)c2)C1` (stereo not given) [1-{5-[2-(3,4-Dichloro-phenyl)-acetyl]-4,5,6,7-tetrahydro-furo[3,2-c]pyridin-4-ylmethyl}-pyrrolidin-3-one] came in with an IC50 of 6 nM.
